Columns and labels:
[1] = molecular target: T1, Serine/threonine-protein kinase D2 (Homo sapiens) (UniProt Q9BZL6); conditions: 10 uM
T1 sequence (whole entry): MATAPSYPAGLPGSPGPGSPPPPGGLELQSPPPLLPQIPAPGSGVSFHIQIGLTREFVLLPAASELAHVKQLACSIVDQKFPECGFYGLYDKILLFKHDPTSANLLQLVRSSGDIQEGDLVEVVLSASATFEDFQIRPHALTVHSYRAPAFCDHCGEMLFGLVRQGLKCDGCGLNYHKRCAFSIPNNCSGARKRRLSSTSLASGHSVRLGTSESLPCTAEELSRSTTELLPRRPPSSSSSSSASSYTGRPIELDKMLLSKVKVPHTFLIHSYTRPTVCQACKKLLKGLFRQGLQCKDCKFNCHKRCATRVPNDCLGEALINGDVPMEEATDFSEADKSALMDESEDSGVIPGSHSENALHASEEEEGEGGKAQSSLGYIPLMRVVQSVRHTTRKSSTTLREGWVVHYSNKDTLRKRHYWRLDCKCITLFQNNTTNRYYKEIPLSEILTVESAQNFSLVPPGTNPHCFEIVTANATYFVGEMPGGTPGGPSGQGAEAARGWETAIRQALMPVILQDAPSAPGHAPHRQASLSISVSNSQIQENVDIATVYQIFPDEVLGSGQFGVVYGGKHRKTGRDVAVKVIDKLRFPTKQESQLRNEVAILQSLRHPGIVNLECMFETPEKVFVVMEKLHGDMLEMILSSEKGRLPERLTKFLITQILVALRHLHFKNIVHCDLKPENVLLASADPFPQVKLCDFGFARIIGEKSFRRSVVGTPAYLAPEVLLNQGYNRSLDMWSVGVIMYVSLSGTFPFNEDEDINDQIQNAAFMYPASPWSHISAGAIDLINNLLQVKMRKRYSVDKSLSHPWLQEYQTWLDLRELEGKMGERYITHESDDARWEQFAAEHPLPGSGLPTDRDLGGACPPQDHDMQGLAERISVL
Description: Inhibition of PKD at 10 uM

[2] = Half life in rat liver microsome; assay type: ADME; conditions: liver microsomes
[3] = molecular target: T2, Dual specificity tyrosine-phosphorylation-regulated kinase 3 (Homo sapiens) (UniProt O43781); conditions: 10 uM
T2 sequence (whole entry): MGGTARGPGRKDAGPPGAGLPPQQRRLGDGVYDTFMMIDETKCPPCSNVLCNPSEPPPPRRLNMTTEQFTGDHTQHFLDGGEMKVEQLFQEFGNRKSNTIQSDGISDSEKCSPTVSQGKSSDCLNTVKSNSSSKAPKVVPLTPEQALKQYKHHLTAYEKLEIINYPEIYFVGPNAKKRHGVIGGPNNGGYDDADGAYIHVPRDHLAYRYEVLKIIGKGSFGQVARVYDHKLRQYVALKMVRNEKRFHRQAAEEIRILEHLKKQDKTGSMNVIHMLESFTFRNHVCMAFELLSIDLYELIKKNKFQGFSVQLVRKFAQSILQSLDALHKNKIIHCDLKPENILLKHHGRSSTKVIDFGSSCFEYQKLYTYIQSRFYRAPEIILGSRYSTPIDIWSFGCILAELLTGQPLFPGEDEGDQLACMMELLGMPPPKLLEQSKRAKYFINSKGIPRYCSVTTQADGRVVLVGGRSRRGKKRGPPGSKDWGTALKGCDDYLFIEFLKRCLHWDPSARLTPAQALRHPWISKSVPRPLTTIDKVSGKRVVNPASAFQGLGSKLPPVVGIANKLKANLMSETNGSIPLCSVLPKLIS
Description: Inhibition of DYRK3 at 10 uM

[4] = Half life in C57 mouse; assay type: ADME, organism-based; conditions: in vivo
[5] = Volume of distribution at steady state in C57 mouse; assay type: ADME, organism-based; conditions: in vivo, read-out: Vdss
[6] = molecular target: Tyrosine-protein kinase Fes/Fps (Homo sapiens) (UniProt P07332); conditions: 10 uM
Sequence of Tyrosine-protein kinase Fes/Fps (Homo sapiens) (P07332 whole entry): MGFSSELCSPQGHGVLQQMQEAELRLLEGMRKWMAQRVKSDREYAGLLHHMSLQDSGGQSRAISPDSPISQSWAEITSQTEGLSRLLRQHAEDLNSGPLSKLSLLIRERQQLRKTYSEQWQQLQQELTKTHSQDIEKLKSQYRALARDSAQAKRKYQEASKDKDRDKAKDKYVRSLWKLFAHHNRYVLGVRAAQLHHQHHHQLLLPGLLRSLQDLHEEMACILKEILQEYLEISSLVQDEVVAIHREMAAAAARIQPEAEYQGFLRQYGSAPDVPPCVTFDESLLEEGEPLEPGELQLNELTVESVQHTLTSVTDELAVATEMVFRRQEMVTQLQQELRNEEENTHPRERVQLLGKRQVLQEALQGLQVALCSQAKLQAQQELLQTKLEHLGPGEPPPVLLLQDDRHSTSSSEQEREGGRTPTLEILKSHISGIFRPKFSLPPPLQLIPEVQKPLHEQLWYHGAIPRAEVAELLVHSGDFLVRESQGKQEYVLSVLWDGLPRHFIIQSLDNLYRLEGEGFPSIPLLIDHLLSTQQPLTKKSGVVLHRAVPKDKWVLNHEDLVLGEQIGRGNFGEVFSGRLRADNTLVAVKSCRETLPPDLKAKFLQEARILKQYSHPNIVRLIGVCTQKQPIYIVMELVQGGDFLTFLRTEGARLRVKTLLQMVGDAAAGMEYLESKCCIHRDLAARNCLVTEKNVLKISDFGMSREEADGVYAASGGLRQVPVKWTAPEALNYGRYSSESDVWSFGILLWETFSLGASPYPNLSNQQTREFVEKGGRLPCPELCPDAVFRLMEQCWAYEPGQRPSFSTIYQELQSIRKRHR
Description: Inhibition of FES at 10 uM

[7] = molecular target: T3, Serine/threonine-protein kinase Sgk2 (Homo sapiens) (UniProt Q9HBY8); conditions: 10 uM
T3 sequence (whole entry): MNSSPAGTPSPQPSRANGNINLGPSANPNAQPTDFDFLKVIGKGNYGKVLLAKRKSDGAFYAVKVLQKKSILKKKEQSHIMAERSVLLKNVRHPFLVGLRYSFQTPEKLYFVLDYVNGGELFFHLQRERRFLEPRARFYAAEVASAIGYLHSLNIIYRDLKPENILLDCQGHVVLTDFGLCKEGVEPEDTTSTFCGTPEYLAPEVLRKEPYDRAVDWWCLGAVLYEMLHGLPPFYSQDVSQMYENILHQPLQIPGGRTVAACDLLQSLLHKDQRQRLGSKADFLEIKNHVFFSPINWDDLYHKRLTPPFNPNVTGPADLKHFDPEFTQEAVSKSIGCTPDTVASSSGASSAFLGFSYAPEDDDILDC
Description: Inhibition of SGK2 at 10 uM

[8] = molecular target: Rho-associated protein kinase 2 (Homo sapiens, UniProt O75116); conditions: 10 uM
Sequence of Rho-associated protein kinase 2 (O75116 whole entry, looked up): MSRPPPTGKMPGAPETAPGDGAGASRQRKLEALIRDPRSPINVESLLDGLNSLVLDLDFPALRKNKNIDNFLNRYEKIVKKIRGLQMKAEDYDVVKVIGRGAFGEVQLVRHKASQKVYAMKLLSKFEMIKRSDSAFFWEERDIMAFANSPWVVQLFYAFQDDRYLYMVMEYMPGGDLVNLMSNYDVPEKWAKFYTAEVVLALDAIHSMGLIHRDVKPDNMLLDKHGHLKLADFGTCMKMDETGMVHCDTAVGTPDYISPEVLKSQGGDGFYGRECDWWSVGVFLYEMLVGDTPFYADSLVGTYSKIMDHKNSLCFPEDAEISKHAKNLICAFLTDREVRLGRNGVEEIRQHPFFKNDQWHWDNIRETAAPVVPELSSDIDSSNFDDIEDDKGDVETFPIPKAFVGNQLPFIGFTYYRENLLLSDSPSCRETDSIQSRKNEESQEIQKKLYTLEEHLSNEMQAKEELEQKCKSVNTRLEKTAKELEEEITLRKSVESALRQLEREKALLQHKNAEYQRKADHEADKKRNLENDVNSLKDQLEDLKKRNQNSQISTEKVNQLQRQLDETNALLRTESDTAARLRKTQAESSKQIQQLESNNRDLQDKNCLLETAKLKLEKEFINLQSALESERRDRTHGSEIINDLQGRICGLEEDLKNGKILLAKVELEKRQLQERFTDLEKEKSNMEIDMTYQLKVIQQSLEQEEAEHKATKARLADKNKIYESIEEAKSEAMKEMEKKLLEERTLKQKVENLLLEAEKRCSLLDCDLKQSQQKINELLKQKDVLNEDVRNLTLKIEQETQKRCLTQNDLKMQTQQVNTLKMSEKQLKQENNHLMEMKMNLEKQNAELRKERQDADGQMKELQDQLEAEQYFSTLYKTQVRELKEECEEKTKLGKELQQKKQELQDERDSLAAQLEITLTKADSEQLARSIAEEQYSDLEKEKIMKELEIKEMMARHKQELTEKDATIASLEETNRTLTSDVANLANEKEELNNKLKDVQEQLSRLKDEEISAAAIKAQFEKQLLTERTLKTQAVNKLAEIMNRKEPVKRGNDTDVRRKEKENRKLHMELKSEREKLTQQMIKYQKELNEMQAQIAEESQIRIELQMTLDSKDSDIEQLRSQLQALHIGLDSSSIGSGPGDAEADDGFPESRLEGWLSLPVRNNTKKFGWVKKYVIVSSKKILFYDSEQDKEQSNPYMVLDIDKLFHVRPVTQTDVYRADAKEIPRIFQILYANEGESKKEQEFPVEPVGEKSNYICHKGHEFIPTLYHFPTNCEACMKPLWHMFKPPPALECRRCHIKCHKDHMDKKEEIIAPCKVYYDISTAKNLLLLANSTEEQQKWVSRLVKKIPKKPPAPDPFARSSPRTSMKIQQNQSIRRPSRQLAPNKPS
Description: Inhibition of ROCK2 at 10 uM

Nc1nccc2cc(O[C@H]3CCCNC3)ccc12
inhibition [1]: > 80% | half-life [2]: > 2 h | inhibition [3]: > 80% | half-life [4]: 5.8 h | Vd [5]: 11 L/kg | inhibition [6]: > 80% | inhibition [7]: > 80% | inhibition [8]: > 80%
